# System: HOP-62 complex spheroids with HUVEC/MSC, viability
# Experiment: Anticancer human tumor HOP-62 cell line growth inhibition [RAS];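 further: spheroids exposed to agents for seven days before readout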;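 on viability, T/C: 100% = DMSO vehicle control viability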
# Conditions: for IC50: curve of first compound; for viability, T/C: stronger effect = lower value
# How it was run: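 Tumour cells grown as complex spheroids with HUVEC endothelial cells and mesenchymal stem cells, treated with RAS pathway inhibitor combinations. Each agent spans half-log steps from near clinical Cmax, or 10 microM where Cmax is unknown.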
# [1] = second compound 0.000949 µM, first compound 0.000949 µM
# [2] = second compound 0.000949 µM, first compound 0.003 µM
# [3] = second compound 0.000949 µM, first compound 0.00949 µM
# [4] = second compound 0.000949 µM, first compound 0.03 µM
# [5] = second compound 0.000949 µM, first compound 0.0949 µM
# [6] = second compound 0.000949 µM, first compound 0.3 µM
# [7] = second compound 0.003 µM, first compound 0.000949 µM
# [8] = second compound 0.003 µM, first compound 0.003 µM
# [9] = second compound 0.003 µM, first compound 0.00949 µM
# [10] = second compound 0.003 µM, first compound 0.03 µM
# [11] = second compound 0.003 µM, first compound 0.0949 µM
# [12] = second compound 0.003 µM, first compound 0.3 µM
# [13] = second compound 0.00949 µM, first compound 0.000949 µM
# [14] = second compound 0.00949 µM, first compound 0.003 µM
# [15] = second compound 0.00949 µM, first compound 0.00949 µM
# [16] = second compound 0.00949 µM, first compound 0.03 µM
# [17] = second compound 0.00949 µM, first compound 0.0949 µM
# [18] = second compound 0.00949 µM, first compound 0.3 µM
# [19] = second compound 0.03 µM, first compound 0.000949 µM
# [20] = second compound 0.03 µM, first compound 0.003 µM
# [21] = second compound 0.03 µM, first compound 0.00949 µM
# [22] = second compound 0.03 µM, first compound 0.03 µM
# [23] = second compound 0.03 µM, first compound 0.0949 µM
# [24] = second compound 0.03 µM, first compound 0.3 µM
# [25] = second compound 0.0949 µM, first compound 0.000949 µM
# [26] = second compound 0.0949 µM, first compound 0.003 µM
# [27] = second compound 0.0949 µM, first compound 0.00949 µM
# [28] = second compound 0.0949 µM, first compound 0.03 µM
# [29] = second compound 0.0949 µM, first compound 0.0949 µM
# [30] = second compound 0.0949 µM, first compound 0.3 µM
# [31] = second compound 0.3 µM, first compound 0.000949 µM
# [32] = second compound 0.3 µM, first compound 0.003 µM
# [33] = second compound 0.3 µM, first compound 0.00949 µM
# [34] = second compound 0.3 µM, first compound 0.03 µM
# [35] = second compound 0.3 µM, first compound 0.0949 µM
# [36] = second compound 0.3 µM, first compound 0.3 µM
structure (smiles),measurement,setting,value
C=CC(=O)N1CCN(c2nc(OCC3CCCN3C)nc3c(F)c(-c4nc(N)cc(C)c4C(F)(F)F)c(Cl)cc23)C(C)C1 (stereo unspecified) + CCn1c(-c2cc(N3CCN(C)CC3)cnc2C(C)OC)c2c3cc(ccc31)-c1csc(n1)CC(NC(=O)C1CC1C)C(=O)N1CCCC(N1)C(=O)OCC(C)(C)C2,IC50,second compound 0.000949 µM,> 1000 nM
same,IC50,second compound 0.003 µM,> 1000 nM
same,IC50,second compound 0.00949 µM,> 1000 nM
same,IC50,second compound 0.03 µM,< 3.16 nM
same,IC50,second compound 0.0949 µM,< 3.16 nM
same,IC50,second compound 0.3 µM,< 3.16 nM
same,"viability, T/C","second compound 0.000949 µM, first compound 0.00316 µM",92.6%
same,"viability, T/C","second compound 0.000949 µM, first compound 0.01 µM",85.2%
same,"viability, T/C","second compound 0.000949 µM, first compound 0.0316 µM",66.2%
same,"viability, T/C","second compound 0.000949 µM, first compound 0.1 µM",88.2%
same,"viability, T/C","second compound 0.000949 µM, first compound 0.316 µM",84%
same,"viability, T/C","second compound 0.000949 µM, first compound 1 µM",66.1%
same,"viability, T/C","second compound 0.003 µM, first compound 0.00316 µM",75.6%
same,"viability, T/C","second compound 0.003 µM, first compound 0.01 µM",75.9%
same,"viability, T/C","second compound 0.003 µM, first compound 0.0316 µM",69.2%
same,"viability, T/C","second compound 0.003 µM, first compound 0.1 µM",74.2%
same,"viability, T/C","second compound 0.003 µM, first compound 0.316 µM",78.5%
same,"viability, T/C","second compound 0.003 µM, first compound 1 µM",54.5%
same,"viability, T/C","second compound 0.00949 µM, first compound 0.00316 µM",70.7%
same,"viability, T/C","second compound 0.00949 µM, first compound 0.01 µM",52.2%
same,"viability, T/C","second compound 0.00949 µM, first compound 0.0316 µM",52.9%
same,"viability, T/C","second compound 0.00949 µM, first compound 0.1 µM",59.8%
same,"viability, T/C","second compound 0.00949 µM, first compound 0.316 µM",49.7%
same,"viability, T/C","second compound 0.00949 µM, first compound 1 µM",46.1%
same,"viability, T/C","second compound 0.03 µM, first compound 0.00316 µM",46.8%
same,"viability, T/C","second compound 0.03 µM, first compound 0.01 µM",43.2%
same,"viability, T/C","second compound 0.03 µM, first compound 0.0316 µM",43.5%
same,"viability, T/C","second compound 0.03 µM, first compound 0.1 µM",32.2%
same,"viability, T/C","second compound 0.03 µM, first compound 0.316 µM",31.3%
same,"viability, T/C","second compound 0.03 µM, first compound 1 µM",38.5%
same,"viability, T/C","second compound 0.0949 µM, first compound 0.00316 µM",35.6%
same,"viability, T/C","second compound 0.0949 µM, first compound 0.01 µM",37.1%
same,"viability, T/C","second compound 0.0949 µM, first compound 0.0316 µM",34%
same,"viability, T/C","second compound 0.0949 µM, first compound 0.1 µM",36.7%
same,"viability, T/C","second compound 0.0949 µM, first compound 0.316 µM",29.2%
same,"viability, T/C","second compound 0.0949 µM, first compound 1 µM",27.2%
same,"viability, T/C","second compound 0.3 µM, first compound 0.00316 µM",39.4%
same,"viability, T/C","second compound 0.3 µM, first compound 0.01 µM",52.7%
same,"viability, T/C","second compound 0.3 µM, first compound 0.0316 µM",37.7%
same,"viability, T/C","second compound 0.3 µM, first compound 0.1 µM",28.8%
same,"viability, T/C","second compound 0.3 µM, first compound 0.316 µM",31.7%
same,"viability, T/C","second compound 0.3 µM, first compound 1 µM",31.6%
CC1(C)CCC(Nc2ncc(C(F)(F)F)c(-c3c[nH]c4c(P(C)(C)=O)c(C#N)ccc34)n2)CN1 (stereo unspecified) + CCn1c(-c2cc(N3CCN(C)CC3)cnc2C(C)OC)c2c3cc(ccc31)-c1csc(n1)CC(NC(=O)C1CC1C)C(=O)N1CCCC(N1)C(=O)OCC(C)(C)C2,IC50,second compound 0.000949 µM,> 300 nM
same,IC50,second compound 0.003 µM,274 nM
same,IC50,second compound 0.00949 µM,> 300 nM
same,IC50,second compound 0.03 µM,> 300 nM
same,IC50,second compound 0.0949 µM,> 300 nM
same,IC50,second compound 0.3 µM,< 0.949 nM
same,"viability, T/C",[1],106%
same,"viability, T/C",[2],95.9%
same,"viability, T/C",[3],54.9%
same,"viability, T/C",[4],71.5%
same,"viability, T/C",[5],76.7%
same,"viability, T/C",[6],38.8%
same,"viability, T/C",[7],83%
same,"viability, T/C",[8],73%
same,"viability, T/C",[9],61.9%
same,"viability, T/C",[10],74%
same,"viability, T/C",[11],79.7%
same,"viability, T/C",[12],48%
same,"viability, T/C",[13],68.3%
same,"viability, T/C",[14],52.8%
same,"viability, T/C",[15],67.2%
same,"viability, T/C",[16],68.7%
same,"viability, T/C",[17],67.8%
same,"viability, T/C",[18],54.1%
same,"viability, T/C",[19],50.9%
same,"viability, T/C",[20],56.4%
same,"viability, T/C",[21],72.1%
same,"viability, T/C",[22],74.3%
same,"viability, T/C",[23],51.6%
same,"viability, T/C",[24],66%
same,"viability, T/C",[25],49.5%
same,"viability, T/C",[26],59%
same,"viability, T/C",[27],64.4%
same,"viability, T/C",[28],66.1%
same,"viability, T/C",[29],51.4%
same,"viability, T/C",[30],70.2%
same,"viability, T/C",[31],43.8%
same,"viability, T/C",[32],59.2%
same,"viability, T/C",[33],70.8%
same,"viability, T/C",[34],56.9%
same,"viability, T/C",[35],66.1%
same,"viability, T/C",[36],70.7%
CCc1c2c(nc3ccc(O)cc13)-c1cc3c(c(=O)n1C2)COC(=O)[C@]3(O)CC + CCn1c(-c2cc(N3CCN(C)CC3)cnc2C(C)OC)c2c3cc(ccc31)-c1csc(n1)CC(NC(=O)C1CC1C)C(=O)N1CCCC(N1)C(=O)OCC(C)(C)C2,IC50,second compound 0.000949 µM,1.77 nM
same,IC50,second compound 0.003 µM,1.54 nM
same,IC50,second compound 0.00949 µM,1.14 nM
same,IC50,second compound 0.03 µM,< 0.949 nM
same,IC50,second compound 0.0949 µM,< 0.949 nM
same,IC50,second compound 0.3 µM,< 0.949 nM
same,"viability, T/C",[1],83.8%
same,"viability, T/C",[2],21.2%
same,"viability, T/C",[3],9.03%
same,"viability, T/C",[4],7.89%
same,"viability, T/C",[5],5.5%
same,"viability, T/C",[6],1.91%
same,"viability, T/C",[7],72.3%
same,"viability, T/C",[8],18.9%
same,"viability, T/C",[9],13.3%
same,"viability, T/C",[10],11.4%
same,"viability, T/C",[11],7.41%
same,"viability, T/C",[12],4.35%
same,"viability, T/C",[13],55.1%
same,"viability, T/C",[14],25.2%
same,"viability, T/C",[15],17.4%
same,"viability, T/C",[16],13.7%
same,"viability, T/C",[17],11.1%
same,"viability, T/C",[18],9.59%
same,"viability, T/C",[19],45.6%
same,"viability, T/C",[20],32%
same,"viability, T/C",[21],21.1%
same,"viability, T/C",[22],15.6%
same,"viability, T/C",[23],13.1%
same,"viability, T/C",[24],13.2%
same,"viability, T/C",[25],34.5%
same,"viability, T/C",[26],32.5%
same,"viability, T/C",[27],19.7%
same,"viability, T/C",[28],14.7%
same,"viability, T/C",[29],12.9%
same,"viability, T/C",[30],13.6%
same,"viability, T/C",[31],37.8%
same,"viability, T/C",[32],25.2%
same,"viability, T/C",[33],18.5%
same,"viability, T/C",[34],15.8%
same,"viability, T/C",[35],21.9%
same,"viability, T/C",[36],15.8%

# Source: PubChem BioAssay AID2060892 (Molecular Pharmacology Branch, DTP, NCI, 2025)
